According to the RepoRT retention time repository (doi:10.1038/s41586-021-03707-9):

Experiments:
[1] = Waters ACQUITY UPLC BEH C18, 100 × 2.1 mm, 1.7 µm, 40 °C, 0.28 mL/min, estimated dead time 0.63 min; A: water + 6.5 mM ammonium hydroxide; B: methanol + 6.5 mM ammonium hydroxide; gradient (min/%B) 0/0.5 4/70 4.5/98 5.4/98; settings: stereoisomer not certain
[2] = RP, Waters ACQUITY UPLC HSS C18, 100 × 2.1 mm, 1.7 µm, 40 °C, 0.35 mL/min, estimated dead time 0.63 min; A: water + 0.1% formic acid; B: methanol + 0.1% formic acid; gradient (min/%B) 0/0.5 4/70 4.5/98 5.4/98; settings: stereoisomer not certain

LC retention time [1] [min]	LC retention time [2] [min]	SMILES
0.849	0.864	CC(=O)OC(CC(=O)[O-])C[N+](C)(C)C (centres undefined)
2.54	1.82	CNC(=O)c1cccnc1
2.89	2.82	OCc1ccccc1OC1OC(CO)C(O)C(O)C1O (centres undefined)
3.51	2.85	CSCC1OC(n2cnc3c(N)ncnc32)C(O)C1O (centres undefined)
4.61	4.4	CCOC(=O)c1ccc(N)cc1
0.851	0.847	OCC1OC(OC2C(CO)OC(OC3C(CO)OC(O)C(O)C3O)C(O)C2O)C(O)C(O)C1O (centres undefined)
0.821	0.77	CN(C)CC(=O)O
0.918	1.77	CC(=O)NC(C)C(=O)O (centres undefined)
1.31	1.56	Nc1ncnc2c1ncn2C1CC(O)C(COP(=O)(O)O)O1 (centres undefined)
4.37	5.11	CCCCNC(=O)NS(=O)(=O)c1ccc(C)cc1
3.87	3.49	Cc1ccc(O)c(O)c1
1.77	1.58	NC(=O)c1ncn(C2OC(CO)C(O)C2O)c1N (centres undefined)
2.74	3.56	Cc1ccccc1C(=O)NCC(=O)O
0.886	3.47	O=C(O)c1cccc(O)c1
2.09	1.91	O=C(O)c1ccnc2ccccc12
4.22	4.13	COc1cc(O)cc(OC)c1
3.66	4.92	O=C(O)CCCc1c[nH]c2ccccc12
2.3	2.66	O=C1NS(=O)(=O)c2ccccc21
0.853	0.857	NC(=O)NCCCCC(N)C(=O)O (centres undefined)
5.27	5.25	CCCOC(=O)c1ccc(O)cc1
3.46	2.44	NC(=O)C(N)Cc1c[nH]c2ccccc12 (centres undefined)
0.865	3.35	O=C(O)CCCCCCC(=O)NCC(=O)O
4.29	2.24	CCN1CCCC1CNC(=O)c1cc(S(N)(=O)=O)ccc1OC (centres undefined)

LC retention time [1] [min]	LC retention time [2] [min]	SMILES
2.69	3.49	O=C(O)CNC(=O)Cc1ccccc1
1.67	1.66	O=c1ccn(C2OC(CO)C(O)C2O)c(=O)[nH]1 (centres undefined)
0.831	0.804	OCC1OC(OCC2OC(O)C(O)C(O)C2O)C(O)C(O)C1O (centres undefined)
2.58	2.5	NC(Cc1ccc([N+](=O)[O-])cc1)C(=O)O (centres undefined)
1.14	1.15	O=C(O)C1CCCCN1 (centres undefined)
2.41	4.18	O=[N+]([O-])c1ccc(O)cc1
3.38	2.34	CC(C)(C)NCC(O)c1ccc(O)c(CO)c1 (centres undefined)
2.14	1.4	NC(=O)c1cccnc1
0.924	2.57	Nc1c(O)cccc1C(=O)O
0.87	2.36	O=C(O)c1ccc(CO)o1
0.853	0.85	OC1C2COC(O2)C(O)C1O (centres undefined)
1.25	1.27	O=C(O)c1cccnc1
0.91	1.11	NC(N)=NCCCC(=O)O
1.94	1.54	Cc1ncc(CO)c(CO)c1O
1.98	1.92	Nc1nc2c(ncn2C2OC(CO)C(O)C2O)c(=O)[nH]1 (centres undefined)
4.37	5	O=C(O)CCCCc1ccccc1
2.29	3	Cn1c(=O)c2c([nH]c(=O)n2C)n(C)c1=O
5.01	4.85	COC(=O)Cc1c[nH]c2ccccc12
3.57	2.35	CC(C)NCC(O)COc1ccc(CC(N)=O)cc1 (centres undefined)
1.1	1.29	NC(Cc1ccc(O)c(O)c1)C(=O)O (centres undefined)
0.867	0.877	O=C(O)c1ccncc1
1.19	1.18	O=c1cc[nH]c(=O)[nH]1
3.44	5.29	Cc1cccc(C(=O)O)c1O

LC retention time [1] [min]	LC retention time [2] [min]	SMILES
0.861	0.77	CN1CC(=O)NC1=N
0.857	2.87	CCC(C)(O)C(=O)O (centres undefined)
3.61	3.5	Cc1cc2nc3c(=O)[nH]c(=O)nc-3n(CC(O)C(O)C(O)CO)c2cc1C (centres undefined)
2.21	2.2	Nc1ccccc1C(=O)CC(N)C(=O)O (centres undefined)
0.876	0.854	CC(=O)OCC(N)C(=O)O (centres undefined)
2.69	3.27	NC(=O)CCC(NC(=O)Cc1ccccc1)C(=O)O (centres undefined)
1.85	1.69	c1ncc2[nH]cnc2n1
1.57	1.73	Nc1nc2nccnc2c(=O)[nH]1
0.847	3.01	Nc1nc2ncc(CNc3ccc(C(=O)NC(CCC(=O)O)C(=O)O)cc3)nc2c(=O)[nH]1 (centres undefined)
0.769	0.761	NCCCC(=O)O
3.09	3.01	CC(=O)NCCc1c[nH]c2ccc(O)cc12
4.59	4.43	CC1C(=O)Nc2ccccc21 (centres undefined)
2.11	1.68	Nc1ncnc2c1ncn2C1OC(CO)C2OP(=O)(O)OC21 (centres undefined)
1.93	1.94	Oc1cccc(O)c1O
0.892	3.1	O=C(O)c1ccc(O)cc1
1.73	2.95	NC(CC(=O)O)C(=O)NC(Cc1ccccc1)C(=O)O (centres undefined)
0.874	0.765	O=C(O)CN(CCO)CCO
3.13	4.63	O=C(O)CCc1c[nH]c2ccccc12
1.67	3.04	O=C(O)c1cc(=O)c2cccc(O)c2[nH]1
1.9	1.92	O=c1[nH]cnc2c1ncn2C1OC(CO)C(O)C1O (centres undefined)
0.808	0.839	CC(CN)C(=O)O (centres undefined)
3.49	4.18	O=C(O)CNC(=O)C=Cc1ccccc1
3.28	3.43	CSc1ncnc2nc[nH]c12

LC retention time [1] [min]	LC retention time [2] [min]	SMILES
1.94	1.88	Cc1c[nH]c(=O)[nH]c1=O
0.801	0.759	NC(N)=NCC(=O)O
0.813	1.35	O=c1ccn(C2CC(O)C(COP(=O)(O)O)O2)c(=O)[nH]1 (centres undefined)
3.81	2.01	CCN(CC)CCNC(=O)c1ccc(N)cc1
0.886	3.35	O=C(O)c1ccoc1
4.28	2.32	CNC(=C[N+](=O)[O-])NCCSCc1ccc(CN(C)C)o1
0.928	1.58	CCC(NC(=O)CCC(N)C(=O)O)C(=O)NCC(=O)O (centres undefined)
2.15	3.04	O=C(NO)c1ccccc1O
0.799	0.855	NC(=O)NC1NC(=O)NC1=O (centres undefined)
2.18	3.65	COc1cccc(OC)c1C(=O)O
2.49	4.22	[2H]c1[nH]c2c([2H])c([2H])c([2H])c([2H])c2c1CC(=O)O
1.29	0.91	CC(=O)NCCCCN
2.99	3.99	CC(=O)NC(Cc1ccccc1)C(=O)O (centres undefined)
1.95	2.59	NCCCCCCCC(=O)O
0.76	0.981	CC(=O)NC(CC(N)=O)C(=O)O (centres undefined)
3.32	2.34	O=C(O)CNC(=O)CCc1ccccc1
1.87	1.99	Nc1nc2c(ncn2C2OC3COP(=O)(O)OC3C2O)c(=O)[nH]1 (centres undefined)
2.98	2.9	Oc1ccc2[nH]ccc2c1
5.22	5.02	CC12CCC(=O)C=C1CCC1C2C(O)CC2(C)C1CCC2(O)C(=O)CO (centres undefined)
0.806	0.821	CC(C)(N)C(=O)O

SMILES	LC retention time [1] [min]	LC retention time [2] [min]
CNCCc1ccc(O)cc1	2.43	1.79
CNCCc1c[nH]c2ccccc12	3.84	2.87
CN(C)CCc1ccc(O)cc1	3.89	1.82
CNCC(O)c1ccc(O)cc1 (centres undefined)	1.96	0.855
COc1cc(CCN)ccc1O	2.57	1.99
NCCc1c[nH]c2ccccc12	3.67	2.82
O=C(O)CCCCCCCCCO	3.96	5.06
Nc1ccccc1C(=O)O	1.76	3.65
